Test results from PubChem BioAssay (NCI).
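Five compound concentrations were applied to cells in 96-well plates for 48 hours; endpoints were derived by simple linear interpolation of the resulting dose-response curve. GI50 = concentration required for 50% inhibition of growth. The concentration for full growth arrest is given as TGI.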

Key:
Assay in all cases: DTP human tumour cell line panel, 48 h
786-0 renal = tested on: 786-0 renal
A498 renal = tested on: A498 renal
A549 NSCLC = tested on: A549 NSCLC
ACHN renal = tested on: ACHN renal
BT-549 breast = tested on: BT-549 breast
CAKI-1 renal = tested on: CAKI-1 renal
COLO 205 colon = tested on: COLO 205 colon
DU-145 prostate = tested on: DU-145 prostate
EKVX NSCLC = tested on: EKVX NSCLC
HCC-2998 colon = tested on: HCC-2998 colon
HCT-116 colon = tested on: HCT-116 colon
HCT-15 colon = tested on: HCT-15 colon
HL-60(TB) leukemia = tested on: HL-60(TB) leukemia
HOP-62 NSCLC = tested on: HOP-62 NSCLC
HOP-92 NSCLC = tested on: HOP-92 NSCLC
HS 578T breast = tested on: HS 578T breast
HT29 colon = tested on: HT29 colon
K-562 leukemia = tested on: K-562 leukemia
KM12 colon = tested on: KM12 colon
LOX IMVI melanoma = tested on: LOX IMVI melanoma
M14 melanoma = tested on: M14 melanoma
MALME-3M melanoma = tested on: MALME-3M melanoma
MCF7 breast = tested on: MCF7 breast
MDA-MB-231 breast = tested on: MDA-MB-231 breast
MDA-MB-435 = tested on: MDA-MB-435
MOLT-4 leukemia = tested on: MOLT-4 leukemia
NCI-H226 lung = tested on: NCI-H226 lung
NCI-H23 lung = tested on: NCI-H23 lung
NCI-H460 lung = tested on: NCI-H460 lung
NCI-H522 lung = tested on: NCI-H522 lung
NCI/ADR-RES ovarian = tested on: NCI/ADR-RES ovarian
OVCAR-3 ovarian = tested on: OVCAR-3 ovarian
OVCAR-4 ovarian = tested on: OVCAR-4 ovarian
OVCAR-5 ovarian = tested on: OVCAR-5 ovarian
OVCAR-8 ovarian = tested on: OVCAR-8 ovarian
PC-3 prostate = tested on: PC-3 prostate
RPMI-8226 leukemia = tested on: RPMI-8226 leukemia
SF-268 CNS = tested on: SF-268 CNS
SF-295 CNS = tested on: SF-295 CNS
SF-539 CNS = tested on: SF-539 CNS
SK-MEL-2 melanoma = tested on: SK-MEL-2 melanoma
SK-MEL-28 melanoma = tested on: SK-MEL-28 melanoma
SK-MEL-5 melanoma = tested on: SK-MEL-5 melanoma
SK-OV-3 ovarian = tested on: SK-OV-3 ovarian
SN12C renal = tested on: SN12C renal
SNB-19 CNS = tested on: SNB-19 CNS
SNB-75 CNS = tested on: SNB-75 CNS
SW-620 colon = tested on: SW-620 colon
T-47D breast = tested on: T-47D breast
TK-10 renal = tested on: TK-10 renal
U251 CNS = tested on: U251 CNS
UACC-257 melanoma = tested on: UACC-257 melanoma
UACC-62 melanoma = tested on: UACC-62 melanoma
UO-31 renal = tested on: UO-31 renal
CCRF-CEM leukemia = tested on: CCRF-CEM leukemia
IGROV1 ovarian = tested on: IGROV1 ovarian
RXF 393 renal = tested on: RXF 393 renal

## COc1ccc(C(=O)/C=C/c2c(OC)cc(OC)cc2OC)c(OC)c1
786-0 renal
  GI50: 15.4 µM
  TGI: > 100 µM
A498 renal
  GI50: 2.23 µM
  TGI: 8.87 µM
A549 NSCLC
  GI50: 5.36 µM
  TGI: > 100 µM
ACHN renal
  GI50: 21.5 µM
  TGI: > 100 µM
BT-549 breast
  GI50: 83.8 µM
  TGI: > 100 µM
CAKI-1 renal
  GI50: 1.44 µM
  TGI: > 100 µM
COLO 205 colon
  GI50: 3.38 µM
  TGI: > 100 µM
DU-145 prostate
  GI50: 3.21 µM
  TGI: > 100 µM
EKVX NSCLC
  GI50: 4.2 µM
  TGI: > 100 µM
HCC-2998 colon
  GI50: 2.51 µM
  TGI: > 100 µM
HCT-116 colon
  GI50: 3.31 µM
  TGI: > 100 µM
HCT-15 colon
  GI50: 2.42 µM
  TGI: > 100 µM
HL-60(TB) leukemia
  GI50: 3.64 µM
  TGI: > 100 µM
HOP-62 NSCLC
  GI50: 11.8 µM
  TGI: > 100 µM
HOP-92 NSCLC
  GI50: 16.6 µM
  TGI: 95.2 µM
HS 578T breast
  GI50: 5.23 µM
  TGI: > 100 µM
HT29 colon
  GI50: 0.881 µM
  TGI: > 100 µM
K-562 leukemia
  GI50: 0.853 µM
  TGI: > 100 µM
KM12 colon
  GI50: 1.21 µM
  TGI: > 100 µM
LOX IMVI melanoma
  GI50: 3.7 µM
  TGI: > 100 µM
M14 melanoma
  GI50: 2.59 µM
  TGI: > 100 µM
MALME-3M melanoma
  GI50: 7.44 µM
  TGI: > 100 µM
MCF7 breast
  GI50: 3.85 µM
  TGI: > 100 µM
MDA-MB-231 breast
  GI50: 5.76 µM
  TGI: > 100 µM
MDA-MB-435
  GI50: 0.275 µM
  TGI: 0.947 µM
MOLT-4 leukemia
  GI50: > 100 µM
  TGI: > 100 µM
NCI-H226 lung
  GI50: 21.3 µM
  TGI: > 100 µM
NCI-H23 lung
  GI50: 3.09 µM
  TGI: > 100 µM
NCI-H460 lung
  GI50: 2.77 µM
  TGI: > 100 µM
NCI-H522 lung
  GI50: 2.47 µM
  TGI: > 100 µM
NCI/ADR-RES ovarian
  GI50: 0.78 µM
  TGI: > 100 µM
OVCAR-3 ovarian
  GI50: 1.46 µM
  TGI: 8.37 µM
OVCAR-4 ovarian
  GI50: > 100 µM
  TGI: > 100 µM
OVCAR-5 ovarian
  GI50: > 100 µM
  TGI: > 100 µM
OVCAR-8 ovarian
  GI50: 4.91 µM
  TGI: > 100 µM
PC-3 prostate
  GI50: 4.6 µM
  TGI: > 100 µM
RPMI-8226 leukemia
  GI50: 5.8 µM
  TGI: > 100 µM
SF-268 CNS
  GI50: 7.33 µM
  TGI: > 100 µM
SF-295 CNS
  GI50: 0.987 µM
  TGI: 5.31 µM
SF-539 CNS
  GI50: 2.7 µM
  TGI: > 100 µM
SK-MEL-2 melanoma
  GI50: 5.52 µM
  TGI: > 100 µM
SK-MEL-28 melanoma
  GI50: > 100 µM
  TGI: > 100 µM
SK-MEL-5 melanoma
  GI50: 1.51 µM
  TGI: > 100 µM
SK-OV-3 ovarian
  GI50: 27.9 µM
  TGI: > 100 µM
SN12C renal
  GI50: 7.24 µM
  TGI: > 100 µM
SNB-19 CNS
  GI50: 8.37 µM
  TGI: > 100 µM
SNB-75 CNS
  GI50: 3.26 µM
  TGI: > 100 µM
SW-620 colon
  GI50: 0.911 µM
  TGI: > 100 µM
T-47D breast
  GI50: 16.8 µM
  TGI: > 100 µM
TK-10 renal
  GI50: 36.6 µM
  TGI: > 100 µM
U251 CNS
  GI50: 3.95 µM
  TGI: > 100 µM
UACC-257 melanoma
  GI50: 36.6 µM
  TGI: > 100 µM
UACC-62 melanoma
  GI50: 1.32 µM
  TGI: > 100 µM
UO-31 renal
  GI50: > 100 µM
  TGI: > 100 µM

## COc1cc2c(cc1OC)[C@@H]1C(=O)c3cc4c(cc3[C@@H]1N(CCN(C)C)C2=O)OCO4
786-0 renal
  GI50: < 0.0203 µM
  TGI: 5.02 µM
A498 renal
  GI50: 2.78 µM
  TGI: 9.43 µM
A549 NSCLC
  GI50: 0.171 µM
  TGI: 3.67 µM
ACHN renal
  GI50: 0.0179 µM
  TGI: 0.452 µM
BT-549 breast
  GI50: 0.838 µM
  TGI: 22.9 µM
CAKI-1 renal
  TGI: 1.08 µM
CCRF-CEM leukemia
  TGI: > 100 µM
COLO 205 colon
  GI50: 0.663 µM
  TGI: > 35.5 µM
DU-145 prostate
  GI50: 0.03 µM
  TGI: 4.84 µM
EKVX NSCLC
  GI50: 1.26 µM
  TGI: 21.5 µM
HCC-2998 colon
  GI50: 0.609 µM
  TGI: 9.77 µM
HCT-116 colon
  GI50: 0.116 µM
  TGI: 1.53 µM
HCT-15 colon
  GI50: 0.368 µM
  TGI: 5.82 µM
HL-60(TB) leukemia
  GI50: 0.0237 µM
  TGI: 0.0752 µM
HOP-62 NSCLC
  GI50: 0.0355 µM
  TGI: 10.6 µM
HOP-92 NSCLC
  GI50: 0.208 µM
  TGI: 8.87 µM
HS 578T breast
  GI50: 11.1 µM
  TGI: 38.5 µM
HT29 colon
  GI50: 0.104 µM
IGROV1 ovarian
  GI50: 0.445 µM
  TGI: > 100 µM
K-562 leukemia
  GI50: 0.27 µM
  TGI: > 42.4 µM
KM12 colon
  GI50: 0.355 µM
  TGI: 2.17 µM
M14 melanoma
  GI50: 0.0814 µM
  TGI: 11.2 µM
MALME-3M melanoma
  GI50: 0.188 µM
  TGI: 3.66 µM
MCF7 breast
  GI50: < 0.0366 µM
  TGI: 14.2 µM
MDA-MB-231 breast
  GI50: 1.06 µM
  TGI: 11.8 µM
MDA-MB-435
  GI50: 0.787 µM
  TGI: 23.5 µM
NCI-H226 lung
  GI50: 0.21 µM
  TGI: 2.28 µM
NCI-H23 lung
  GI50: 0.162 µM
  TGI: 5.09 µM
NCI-H460 lung
  GI50: < 0.0234 µM
  TGI: 2.36 µM
NCI-H522 lung
  GI50: 0.0611 µM
  TGI: 3.2 µM
NCI/ADR-RES ovarian
  GI50: 0.337 µM
  TGI: 14.7 µM
OVCAR-3 ovarian
  GI50: 0.349 µM
  TGI: 1.96 µM
OVCAR-4 ovarian
  GI50: 0.768 µM
  TGI: 18.3 µM
OVCAR-5 ovarian
  GI50: 1.1 µM
  TGI: 15.5 µM
OVCAR-8 ovarian
  GI50: 0.661 µM
  TGI: 9.66 µM
PC-3 prostate
  GI50: 0.316 µM
  TGI: 13.3 µM
RPMI-8226 leukemia
  GI50: 0.0289 µM
  TGI: 0.349 µM
RXF 393 renal
  GI50: 1.26 µM
  TGI: > 21.6 µM
SF-268 CNS
  GI50: 0.056 µM
  TGI: 18.1 µM
SF-295 CNS
  GI50: 0.0194 µM
  TGI: 37.1 µM
SF-539 CNS
  GI50: 0.0669 µM
  TGI: 11.1 µM
SK-MEL-2 melanoma
  GI50: 11.1 µM
  TGI: > 100 µM
SK-MEL-28 melanoma
  GI50: 2.19 µM
  TGI: > 41.3 µM
SK-MEL-5 melanoma
  GI50: 0.144 µM
  TGI: 0.935 µM
SK-OV-3 ovarian
  GI50: 4.2 µM
  TGI: > 65.2 µM
SN12C renal
  GI50: 0.0444 µM
  TGI: 3.74 µM
SNB-19 CNS
  GI50: 1.73 µM
  TGI: > 47.3 µM
SNB-75 CNS
  GI50: 11.1 µM
  TGI: 30.7 µM
SW-620 colon
  GI50: 0.0369 µM
  TGI: 18.7 µM
T-47D breast
  GI50: 0.923 µM
  TGI: 31.3 µM
TK-10 renal
  GI50: 1.53 µM
  TGI: 13.7 µM
U251 CNS
  GI50: 0.0427 µM
  TGI: 12 µM
UACC-257 melanoma
  GI50: 0.784 µM
  TGI: > 33.1 µM
UACC-62 melanoma
  GI50: < 0.0146 µM
  TGI: 0.544 µM
UO-31 renal
  GI50: 0.0855 µM
